Measured values reported in patent publication US20240246908A1 (ORION CORPORATION, priority 2021, published 2024).

Test system: YAP-TEAD
Experiment: TEAD inhibition, Hippo Pathway TEAD Reporter MCF-7 luciferase assay
Type: cell-based
Conditions: Homo sapiens, MCF7, 24 h, Hippo Pathway TEAD Reporter MCF-7 cells, luciferase activity after 24 h; read-out: IC50 of the test compounds on YAP-TEAD inhibition (Group)
Procedure, shortened: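 IC50 derived from ONE-Glo luciferase luminescence after 24 h compound exposure (11 concentrations in quadruplicate, 0.1% DMSO control). Reporter: MCF-7 line expressing firefly luciferase under TEAD elements, constitutively activated by nuclear YAP1.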

COc1ccc(Oc2ccc(F)c(F)c2)cc1NC(=O)C1CCC(=O)N1C (stereo not drawn) [Compound 60, N-(5-(3,4-Difluorophenoxy)-2-methoxyphenyl)-1-methyl-5-oxopyrrolidine-2-carboxamide]
IC50: 50 to 300 nM

CN1C(=O)CC[C@H]1C(=O)Nc1cc(/C=C/C2CCC(F)(F)CC2)cc2c1OCC2 [Compound 406, (S,E)-N-(5-(2-(4,4-Difluorocyclohexyl)vinyl)-2,3-dihydrobenzofuran-7-yl)-1-methyl-5-oxopyrrolidine-2-carboxamide]
IC50: < 50 nM

COc1ccc(Oc2ccc(C(F)(F)F)c(F)c2)cc1NC(=O)C1CCC(=O)N1C (stereo not drawn) [Compound 395]
IC50: < 50 nM

COc1ccc(Oc2cc(C(F)(F)F)ccn2)cc1NC(=O)[C@H]1CCC(=O)N1C [Compound 393, (R)—N-(2-Methoxy-5-((4-(trifluoromethyl)pyridin-2-yl)oxy)phenyl)-1-methyl-5-oxopyrrolidine-2-carboxamide]
IC50: 301 to 2000 nM

CN1C(=O)CCC1C(=O)Nc1cc(Oc2cccc(C(F)(F)F)c2)cc2c1OCCO2 (stereo not drawn) [Compound 233, 1-Methyl-5-oxo-N-(7-(3-(trifluoromethyl)phenoxy)-2,3-dihydrobenzo[b][1,4]dioxin-5-yl)pyrrolidine-2-carboxamide]
IC50: 50 to 300 nM

O=C(Nc1cc(Oc2ccc(C(F)(F)F)cn2)cc2c1OCO2)C1CCC(=O)N1C1CC1 (stereo not drawn) [Compound 179, 1-Cyclopropyl-5-oxo-N-(6-((5-(trifluoromethyl)pyridin-2-yl)oxy)benzo[d]-[1,3]dioxol-4-yl)pyrrolidine-2-carboxamide]
IC50: < 50 nM

COc1ccc(Oc2ccc(C#N)c(C(F)(F)F)c2)cc1NC(=O)C1CCC(=O)N1C (stereo not drawn) [Compound 396, N-(5-(4-Cyano-3-(trifluoromethyl)phenoxy)-2-methoxyphenyl)-1-methyl-5-oxopyrrolidine-2-carboxamide]
IC50: 50 to 300 nM

COc1ccc(OCc2cccc(C(F)(F)F)c2)cc1NC(=O)C1CCC(=O)N1C (stereo not drawn) [Compound 53, N-(2-Methoxy-5-((3-(trifluoromethyl)benzyl)oxy)phenyl)-1-methyl-5-oxo-pyrrolidine-2-carboxamide]
IC50: 50 to 300 nM

COc1ccc(Oc2ccc(C(F)(F)F)cc2)cc1NC(=O)CC1C(=O)N(C)C(=O)N1C (stereo not drawn) [Compound 341, 2-(1,3-Dimethyl-2,5-dioxoimidazolidin-4-yl)-N-(2-methoxy-5-(4-(trifluoro-methyl)phenoxy)phenyl)acetamide]
IC50: 301 to 2000 nM

COc1ccc(O[C@@H]2CCC[C@H](C(F)(F)F)C2)cc1NC(=O)C1CCC(=O)N1 (stereo partly drawn) [Compound 266, N-(2-Methoxy-5-(((1R,3S)-3-(trifluoromethyl)cyclohexyl)oxy)phenyl)-5-oxo-pyrrolidine-2-carboxamide]
IC50: 50 to 300 nM

COc1ccc(O[C@H]2CC[C@H](C(F)(F)F)CC2)cc1NC(=O)[C@H]1CCC(=O)N1C [Compound 103, (R)—N-(2-Methoxy-5-(((trans)-4-(trifluoromethyl)cyclohexyl)oxy)phenyl)-1-methyl-5-oxopyrrolidine-2-carboxamide]
IC50: < 50 nM

COc1ccc(Oc2ccc(F)c(F)c2)cc1NC(=O)C1CCC(=O)N1C(C)C (stereo not drawn) [Compound 82, N-(5-(3,4-Difluorophenoxy)-2-methoxyphenyl)-1-isopropyl-5-oxopyrrolidine-2-carboxamide]
IC50: 50 to 300 nM

COc1ccc(Oc2cccc(OC(F)(F)F)c2)cc1NC(=O)C1CCC(=O)N1C (stereo not drawn) [Compound 291, N-(2-methoxy-5-(3-(trifluoromethoxy)phenoxy)phenyl)-1-methyl-5-oxo-pyrrolidine-2-carboxamide]
IC50: 50 to 300 nM

CN1C(=O)OCC1C(=O)Nc1cc(Oc2ccc(C(F)(F)F)cn2)ccc1F (stereo not drawn) [Compound 197, N-(2-Fluoro-5-((5-(trifluoromethyl)pyridin-2-yl)oxy)phenyl)-3-methyl-2-oxooxazolidine-4-carboxamide]
IC50: 50 to 300 nM

COc1cc(Oc2ccc(OC)c(NC(=O)[C@H]3CCC(=O)N3C)c2)ccc1F [Compound 293, (R)—N-(5-(4-Fluoro-3-methoxyphenoxy)-2-methoxyphenyl)-1-methyl-5-oxo-pyrrolidine-2-carboxamide]
IC50: 50 to 300 nM

COCC(=O)N1C(=O)CC[C@H]1C(=O)Nc1cc(Oc2ccc(C(F)(F)F)cc2)ccc1OC [Compound 333, (S)—N-(2-Methoxy-5-(4-(trifluoromethyl)phenoxy)phenyl)-1-(2-methoxyacetyl)-5-oxopyrrolidine-2-carboxamide]
IC50: 301 to 2000 nM

COc1ccc(Oc2ccc(C(F)(F)F)cc2)cc1NC(=O)[C@@H]1C[C@@H](O)CN1 [Compound 370, (2S,4R)-4-Hydroxy-N-(2-methoxy-5-(4-(trifluoromethyl)phenoxy)phenyl)pyrrolidine-2-carboxamide]
IC50: 301 to 2000 nM

COc1ccc(Oc2ccc(C(F)(F)F)cn2)cc1NC(=O)[C@@H]1CCC(=O)N1C1CC1 [Compound 129, (S)-1-Cyclopropyl-N-(2-methoxy-5-((5-(trifluoromethyl)pyridin-2-yl)oxy)-phenyl)-5-oxopyrrolidine-2-carboxamide]
IC50: < 50 nM

COc1ccc(Oc2ccc(F)c(F)c2)cc1NC(=O)C1CCC(=O)N1 (stereo not drawn) [Compound 59, N-(5-(3,4-Difluorophenoxy)-2-methoxyphenyl)-5-oxopyrrolidine-2-carboxamide]
IC50: < 50 nM

COc1ccc(Oc2ccc(OC(F)(F)F)cc2)cc1NC(=O)[C@H]1CCC(=O)N1C [Compound 290, (R)—N-(2-methoxy-5-(4-(trifluoromethoxy)phenoxy)phenyl)-1-methyl-5-oxopyrrolidine-2-carboxamide]
IC50: < 50 nM

CN1C(=O)CC[C@@H]1C(=O)Nc1cc(Oc2ccc(C(F)(F)F)cn2)cc2c1OCC2 [Compound 162, (R)-1-Methyl-5-oxo-N-(5-((5-(trifluoromethyl)pyridin-2-yl)oxy)-2,3-dihydro-benzofuran-7-yl)pyrrolidine-2-carboxamide]
IC50: < 50 nM

COc1ccc(COc2cccc(F)c2)cc1NC(=O)C1(C)CCNC1=O (stereo not drawn) [Compound 26, N-(5-((3-Fluorophenoxy)methyl)-2-methoxyphenyl)-3-methyl-2-oxopyrrolidine-3-carboxamide]
IC50: 301 to 2000 nM

CN1C(=O)CCC1C(=O)Nc1cc(Oc2ccc(F)c(F)c2)ccc1-c1ccnn1C (stereo not drawn) [Compound 86, N-(5-(3,4-Difluorophenoxy)-2-(1-methyl-1H-pyrazol-5-yl)phenyl)-1-methyl-5-oxopyrrolidine-2-carboxamide]
IC50: 50 to 300 nM

CN1C(=O)CC[C@H]1C(=O)Nc1cc(Oc2ccc(F)c(F)c2)cc2c1OCCO2 [Compound 98, (S)—N-(7-(3,4-Difluorophenoxy)-2,3-dihydrobenzo[b][1,4]dioxin-5-yl)-1-methyl-5-oxopyrrolidine-2-carboxamide]
IC50: 50 to 300 nM

CN1C(=O)CCC1C(=O)Nc1cc(COc2cccc(F)c2)cc2ccoc12 (stereo not drawn) [Compound 249, N-(5-((3-Fluorophenoxy)methyl)benzofuran-7-yl)-1-methyl-5-oxopyrrolidine-2-carboxamide]
IC50: 50 to 300 nM

CC(=O)N1C(=O)CCC1C(=O)Nc1cc(Oc2cccc(C(F)(F)F)c2)cc2c1OCCO2 (stereo not drawn) [Compound 56, 1-Acetyl-5-oxo-N-(7-(3-(trifluoromethyl)phenoxy)-2,3-dihydrobenzo[b][1,4]-dioxin-5-yl)pyrrolidine-2-carboxamide]
IC50: 50 to 300 nM

CCN1C(=O)NCC1C(=O)Nc1cc(Oc2ccc(C(F)(F)F)cn2)ccc1OC (stereo not drawn) [Compound 127, 3-Ethyl-N-(2-methoxy-5-((5-(trifluoromethyl)pyridin-2-yl)oxy)phenyl)-2-oxo-imidazolidine-4-carboxamide]
IC50: 50 to 300 nM
